Measurements published in ChEMBL document CHEMBL5303304, “EUbOPEN Chemogenomics Library - IncuCyte” (2023).

Experiments:
Format in all cases: toxicity, cell-based
Fibroblast = test: Incucyte cell viability with human fibroblast; details: 10 µM, compound concentration 10 uM
HEK-293T = test: Incucyte cell viability with HEK293T; details: human, 10 µM, compound concentration 10 uM
U2OS = test: Incucyte cell viability with U2OS; details: human, 10 µM, compound concentration 10 uM
Also: unitless GR value; below 1 slowed growth and below 0 cell loss.

| SMILES | Growth Rate (Fibroblast; 0 h, replicate number 2) | Growth Rate (Fibroblast; 6 h, replicate number 1) | Growth Rate (Fibroblast; 12 h, replicate number 1) | Growth Rate (HEK-293T; 6 h, replicate number 1) | Growth Rate (HEK-293T; 6 h, replicate number 2) | Growth Rate (HEK-293T; 12 h, replicate number 1) | Growth Rate (HEK-293T; 12 h, replicate number 2) | Growth Rate (HEK-293T; 18 h, replicate number 1) | Growth Rate (U2OS; 0 h, replicate number 1) | Growth Rate (U2OS; 0 h, replicate number 2) | Growth Rate (U2OS; 6 h, replicate number 1) | Growth Rate (U2OS; 12 h, replicate number 1) | Growth Rate (U2OS; 12 h, replicate number 2) | Growth Rate (Fibroblast; 12 h, replicate number 2) | Growth Rate (Fibroblast; 18 h, replicate number 2) | Growth Rate (Fibroblast; 24 h, replicate number 2) | Growth Rate (HEK-293T; 0 h, replicate number 1) | Growth Rate (HEK-293T; 0 h, replicate number 2) | Growth Rate (Fibroblast; 24 h, replicate number 1) | Growth Rate (HEK-293T; 24 h, replicate number 2) | other results |
| --- | --- | --- | --- | --- | --- | --- | --- | --- | --- | --- | --- | --- | --- | --- | --- | --- | --- | --- | --- | --- | --- |
| O=C(Nc1ccc(Oc2ccc(Cl)cc2)c(Cl)c1)c1cc(I)cc(I)c1O [RAFOXANIDE] | -0.93 | -0.56 | -1 | -0.37 | 0.49 | -0.61 | 0.91 | -0.55 | 0.6 | -1 | 0.57 | 0.92 | 0.74 |  |  |  |  |  |  |  | Growth Rate (HEK-293T; 24 h, replicate number 1): -0.48; Growth Rate (U2OS; 18 h, replicate number 1): 0.88 |
| O=C(O)CCn1c2c(c3ccccc31)C[C@H](NS(=O)(=O)c1ccc(F)cc1)CC2 [RAMATROBAN] |  |  |  |  |  |  |  |  | 0.53 |  | 0.88 |  |  | 0.99 | 0.89 | 0.74 | 0.1 | 0.04 |  |  |  |
| CCOc1cc(CC(=O)N[C@@H](CC(C)C)c2ccccc2N2CCCCC2)ccc1C(=O)O [REPAGLINIDE] |  |  |  |  |  |  |  |  |  |  |  |  | 0.94 | 0.38 | 0.61 | 0.86 | 0.91 | 0.8 |  |  | Growth Rate (U2OS; 18 h, replicate number 2): 0.96; Growth Rate (U2OS; 24 h, replicate number 1): 0.99 |
| CCN(C(=O)c1cc(F)ccc1Oc1cncnc1N1CC2(CCN(C[C@H]3CC[C@H](NS(=O)(=O)CC)CC3)CC2)C1)C(C)C [REVUMENIB] | 0.3 | 0.15 | 0.94 |  | 0.24 |  | 0.53 |  | 0.19 | 0.45 | 0.62 | 0.8 | 0.79 |  | 0.88 | 0.93 | -0.33 | 0.43 | 0.88 | 0.38 | Growth Rate (Fibroblast; 6 h, replicate number 2): 0.81; Growth Rate (Fibroblast; 18 h, replicate number 1): 0.79; Growth Rate (HEK-293T; 18 h, replicate number 2): 0.48; Growth Rate (U2OS; 6 h, replicate number 2): 0.45; Growth Rate (U2OS; 18 h, replicate number 1): 0.77; Growth Rate (U2OS; 18 h, replicate number 2): 0.76; Growth Rate (U2OS; 24 h, replicate number 1): 0.76; Growth Rate (U2OS; 24 h, replicate number 2): 0.67 |
| COc1ccc(F)c(F)c1C(=O)c1cnc(NC2CCN(S(C)(=O)=O)CC2)nc1N [RG-547] | 0.02 |  |  | 0.16 | -0.37 | -0.1 | -0.5 | -0.15 | -1 | 0.68 |  | 0.73 | 0.02 | 0.53 | 0.28 | 0.15 | -1 | 0.15 | 0.65 | -0.37 | Growth Rate (Fibroblast; 0 h, replicate number 1): -1; Growth Rate (Fibroblast; 6 h, replicate number 2): 0.62; Growth Rate (Fibroblast; 18 h, replicate number 1): 0.96; Growth Rate (HEK-293T; 18 h, replicate number 2): -0.47; Growth Rate (HEK-293T; 24 h, replicate number 1): -0.13; Growth Rate (U2OS; 6 h, replicate number 2): 0.23; Growth Rate (U2OS; 18 h, replicate number 1): 0.18; Growth Rate (U2OS; 18 h, replicate number 2): 0.02; Growth Rate (U2OS; 24 h, replicate number 1): 0.06; Growth Rate (U2OS; 24 h, replicate number 2): -0.11 |
| C=CC(=O)Nc1ccc2[nH]c(=O)n(C3CCN(Cc4ccc(-c5ccc6c(c5)NC(=O)CO6)cc4)CC3)c2c1 [RL2578] |  | 0.84 | 0.87 | 0.24 | 0.23 | 0.24 | 0.43 | 0.28 | 0.69 |  | 0.83 | 0.76 | 0.91 | 0.71 | 0.52 | 0.51 |  |  | 0.45 | 0.42 | Growth Rate (Fibroblast; 0 h, replicate number 1): -1; Growth Rate (Fibroblast; 6 h, replicate number 2): 0.95; Growth Rate (Fibroblast; 18 h, replicate number 1): 0.72; Growth Rate (HEK-293T; 18 h, replicate number 2): 0.45; Growth Rate (HEK-293T; 24 h, replicate number 1): 0.26; Growth Rate (U2OS; 18 h, replicate number 1): 0.75; Growth Rate (U2OS; 18 h, replicate number 2): 0.78; Growth Rate (U2OS; 24 h, replicate number 1): 0.93; Growth Rate (U2OS; 24 h, replicate number 2): 0.62 |
| N#CC[C@H](C1CCCC1)n1cc(-c2ncnc3[nH]ccc23)cn1 [RUXOLITINIB] |  |  |  | 0.27 |  | 0.86 |  |  | -1 |  |  |  |  |  |  |  | -0.91 | -0.15 |  |  | Growth Rate (Fibroblast; 0 h, replicate number 1): -1 |
| Oc1ccc(-c2nc(-c3ccncc3)c(-c3ccc(F)cc3)[nH]2)cc1 [SB-202190] | -0.18 | 0.11 | -0.11 |  |  |  |  |  | -0.88 | -0.95 |  |  |  | 0.62 |  |  | 0 | -0.17 |  |  |  |
| O=C(Nc1ccccc1Br)N[C@@H]1CCN(c2ccc(C(F)(F)F)cn2)C1 [SB-705498] | 0.7 | 0.4 |  |  | -0.43 | 0.76 | -0.08 | 0.32 | -0.73 | -0.91 | 0.99 | 0.83 |  | 0.55 | 0.51 | 0.58 |  |  | 0.34 | 0.07 | Growth Rate (Fibroblast; 0 h, replicate number 1): 0.33; Growth Rate (Fibroblast; 6 h, replicate number 2): -0.3; Growth Rate (HEK-293T; 18 h, replicate number 2): 0.1; Growth Rate (HEK-293T; 24 h, replicate number 1): 0.31 |
| COc1ccc(-n2nc(C(F)(F)F)cc2-c2ccc(Cl)cc2)cc1 [SC-560] |  | 0.63 | 0.59 |  | 0.8 |  |  |  |  |  | 0.67 |  | 0.86 | 0.09 | 0.54 | 0.62 | 0.2 | 0.61 | 0.68 | 0.9 | Growth Rate (Fibroblast; 0 h, replicate number 1): -1; Growth Rate (Fibroblast; 6 h, replicate number 2): -0.87; Growth Rate (Fibroblast; 18 h, replicate number 1): 0.62; Growth Rate (U2OS; 6 h, replicate number 2): 0.83; Growth Rate (U2OS; 18 h, replicate number 2): 0.95; Growth Rate (U2OS; 24 h, replicate number 2): 0.98 |
| CO[C@H]1C[C@@H]2CC[C@@H](C)[C@@](O)(O2)C(=O)C(=O)N2CCCC[C@H]2C(=O)O[C@H]([C@H](C)C[C@@H]2CC[C@@H](O)[C@H](OC)C2)CC(=O)[C@H](C)/C=C(\C)[C@@H](O)[C@@H](OC)C(=O)[C@H](C)C[C@H](C)/C=C/C=C/C=C/1C [SIROLIMUS] |  | 0.43 | 0.47 | -0.13 | 0.36 | -0.06 | 0.13 | 0.16 |  | 0.94 |  | 0.93 | 0.81 | 0.93 | 0.97 | 0.84 | -0.78 | -0.17 | 0.35 | 0.3 | Growth Rate (Fibroblast; 18 h, replicate number 1): 0.23; Growth Rate (HEK-293T; 18 h, replicate number 2): 0.23; Growth Rate (HEK-293T; 24 h, replicate number 1): 0.26; Growth Rate (U2OS; 24 h, replicate number 1): 0.94 |
